Source: patent US8895549B2, “Aminoalcohol substituted 2,3-dihydroimidazo[1,2-c]quinazoline derivatives useful for treating hyper-proliferative disorders and diseases associated with angiogenesis” (Bayer Intellectual Property GmbH, priority 2010, dated 2014)
pIC50: −log10 of the molar value.

Columns and labels:
[1] = target: PI3Kα (complex of human p110α and human p85α) (Homo sapiens (Human), UniProt P42336); assay: PI3Kα kinase assay (HTRF-based PI3K inhibition assay); format: biochemical; settings: for inhibition at 0.93 µM: 0.93 μM compound, read-out: PI3K alpha average % Inhibition at 0.93 μM; for pIC50: 10 μM ATP, 10 μM PIP2, 20 min at 22° C., read-out: average IC50 in the PI3K alpha biochemical assay;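 as to all read-outs here: PIP3 product detected by HTRF, reading resonance energy transfer from Europium-labeled anti-GST antibody to Streptavidin-APC, as displacement of biotinylated PIP3 tracer from the GST-PH domain complex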
Chain of PI3Kα (complex of human p110α and human p85α) (P42336 whole entry, the tested form may be a part): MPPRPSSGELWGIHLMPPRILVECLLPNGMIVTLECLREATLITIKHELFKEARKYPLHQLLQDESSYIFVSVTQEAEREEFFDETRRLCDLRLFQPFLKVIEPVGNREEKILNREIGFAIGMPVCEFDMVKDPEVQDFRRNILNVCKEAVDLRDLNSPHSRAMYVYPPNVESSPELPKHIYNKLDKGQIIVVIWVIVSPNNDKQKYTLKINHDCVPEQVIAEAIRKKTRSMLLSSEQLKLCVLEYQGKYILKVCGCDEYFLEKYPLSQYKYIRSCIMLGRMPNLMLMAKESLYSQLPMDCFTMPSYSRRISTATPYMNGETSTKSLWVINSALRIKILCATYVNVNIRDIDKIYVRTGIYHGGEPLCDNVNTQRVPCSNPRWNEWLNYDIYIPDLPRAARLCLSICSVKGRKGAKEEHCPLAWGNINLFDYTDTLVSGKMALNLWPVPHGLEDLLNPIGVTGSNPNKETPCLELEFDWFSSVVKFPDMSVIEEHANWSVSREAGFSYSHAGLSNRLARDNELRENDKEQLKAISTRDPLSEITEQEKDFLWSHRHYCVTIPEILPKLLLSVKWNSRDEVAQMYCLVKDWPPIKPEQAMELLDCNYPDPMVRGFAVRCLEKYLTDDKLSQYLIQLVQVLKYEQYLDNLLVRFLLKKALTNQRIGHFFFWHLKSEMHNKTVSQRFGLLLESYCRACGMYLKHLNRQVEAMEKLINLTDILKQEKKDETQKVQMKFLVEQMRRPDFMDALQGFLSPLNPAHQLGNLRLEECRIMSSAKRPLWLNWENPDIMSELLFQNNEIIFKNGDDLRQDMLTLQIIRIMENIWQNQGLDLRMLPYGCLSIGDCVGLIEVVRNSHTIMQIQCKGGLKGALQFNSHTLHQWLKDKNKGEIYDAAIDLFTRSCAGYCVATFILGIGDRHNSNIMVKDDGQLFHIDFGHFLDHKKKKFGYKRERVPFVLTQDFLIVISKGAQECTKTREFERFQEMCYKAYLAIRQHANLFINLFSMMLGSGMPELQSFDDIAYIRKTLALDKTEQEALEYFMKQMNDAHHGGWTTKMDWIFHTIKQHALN
Chain of PI3Kα (complex of human p110α and human p85α) (P27986 whole entry partner, the tested form may be a part): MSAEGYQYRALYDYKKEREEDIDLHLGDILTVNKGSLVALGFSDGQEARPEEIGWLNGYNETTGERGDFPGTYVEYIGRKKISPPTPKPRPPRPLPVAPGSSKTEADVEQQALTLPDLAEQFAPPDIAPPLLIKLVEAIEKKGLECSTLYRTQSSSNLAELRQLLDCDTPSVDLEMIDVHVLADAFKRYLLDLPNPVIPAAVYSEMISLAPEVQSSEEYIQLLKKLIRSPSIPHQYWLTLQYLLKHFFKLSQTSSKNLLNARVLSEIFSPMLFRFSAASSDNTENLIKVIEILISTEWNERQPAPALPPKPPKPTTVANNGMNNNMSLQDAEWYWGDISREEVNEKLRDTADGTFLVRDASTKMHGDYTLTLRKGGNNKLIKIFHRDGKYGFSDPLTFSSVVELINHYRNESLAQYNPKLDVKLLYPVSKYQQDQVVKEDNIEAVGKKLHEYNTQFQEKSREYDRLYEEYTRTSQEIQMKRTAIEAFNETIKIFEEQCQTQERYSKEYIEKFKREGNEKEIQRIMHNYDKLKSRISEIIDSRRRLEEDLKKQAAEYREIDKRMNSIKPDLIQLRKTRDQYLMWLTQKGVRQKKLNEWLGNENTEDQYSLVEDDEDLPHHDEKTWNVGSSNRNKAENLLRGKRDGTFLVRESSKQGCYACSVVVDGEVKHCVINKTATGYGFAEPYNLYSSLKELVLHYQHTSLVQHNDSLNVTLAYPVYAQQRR
Source text: (§1) Determination of % Inhibition and IC50 Values of Compounds in PI3Kα Kinase Assay
PI3Kα inhibitory activity of compounds of the present invention was quantified employing the HTRF-based PI3K inhibition assay as described below.
(§2) As reagents for the kinase reaction itself and the quantification of the reaction product, the PI3-Kinase HTRF Assay kit from Millipore (#33-017) was used. With this kit the phosphatidylinositol 3,4,5-trisphosphate (PIP3) generated in the kinase reaction is detected by displacement of a biotinylated ligand from an energy transfer complex consisting of a Europium-labeled anti-GST monoclonal antibody, a GST-tagged PH domain, biotinylated PIP3 and Streptavidin-Allophycocyanin (APC).
For the assay 50 nL of a 80-fold concentrated solution of the test compound in DMSO was pipetted into a black low volume 384-well microtiter plate (Greiner Bio-One, Frickenhausen, Germany), 3 μL of a solution of PI3Kα and phosphatidylinositol-4,5-bisphosphate (PIP2, 13.8 μM=> final conc. in 4 μl reaction volume=10 μM) in 1× reaction buffer (exact composition not disclosed by the vendor) were added and the mixture was incubated for 15 min at 22° C. to allow pre-binding of the test compounds to the enzyme before the start of the kinase reaction. The amount of PI3Kα was chosen to have the enzyme reaction in the linear range and depended on the activity of the individual lot, typical concentrations in assay were in the range of 90 ng/mL. Then the kinase reaction was started by the addition of 1 μL of a solution of adenosine triphosphate (ATP, 40 μM=> final conc. in the 4 μL assay volume is 10 μM) in reaction buffer and the resulting mixture was incubated for a reaction time of 20 min at 22° C.
The reaction was stopped by the addition of 1 μL of an stop solution (containing the biotinylated PIP3 used as a tracer), then 1 μL detection mix (containing a Europium-labeled anti-GST monoclonal antibody, a GST-tagged PH domain, and Streptavidin-Allophycocyanin) was added and resulting mixture was incubated 3 h at 22° C. to allow the formation of complexes between the detection reagents and either the PIP3 generated in the kinase reaction, or the biotinylated PIP3 added with the stop solution. Subsequently, the amount of energy transfer complex consisting of a Europium-labeled anti-GST monoclonal antibody, a GST-tagged PH domain, biotinylated PIP3 and Streptavidin-Allophycocyanin (APC) was evaluated by measurement of the resonance energy transfer from the Europium-labeled anti-GST monoclonal antibody to the Streptavidin-Allophycocyanin. Therefore, the fluorescence emissions at 620 nm and 665 nm after excitation at 350 nm were measured using a TR-FRET reader, e.g., a Pherastar (BMG Labtechnologies, Offenburg, Germany) or a Viewlux (Perkin-Elmer). The ratio of the emissions at 665 nm and at 622 nm was taken as the measure for the amount of biotinylated PIP3 bound to the GST-tagged PH domain, which is negatively correlated with the amount of PIP3 generated.

[2] = target: PI3Kβ (complex of human p110β and human p85α) (Homo sapiens (Human), UniProt P42338); assay: PI3Kβ kinase assay (HTRF-based PI3K inhibition assay); format: biochemical; settings: for inhibition at 0.93 µM: 0.93 μM compound, read-out: PI3K beta average % Inhibition at 0.93 μM; for pIC50: 10 μM ATP, 10 μM PIP2, 20 min at 22° C., read-out: average IC50 in the PI3K beta biochemical assay; for PI3K beta average IC50/PI3K alpha average IC50: ratio of beta IC50 to alpha IC50;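 as to all read-outs here: Kinase-made PIP3 detected by HTRF, displacing biotinylated PIP3 tracer from a complex of Europium anti-GST antibody, GST-fused PH domain and Streptavidin-APC, read as Europium-to-APC energy transfer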
Chain of PI3Kβ (complex of human p110β and human p85α) (P42338 whole entry, the tested form may be a part): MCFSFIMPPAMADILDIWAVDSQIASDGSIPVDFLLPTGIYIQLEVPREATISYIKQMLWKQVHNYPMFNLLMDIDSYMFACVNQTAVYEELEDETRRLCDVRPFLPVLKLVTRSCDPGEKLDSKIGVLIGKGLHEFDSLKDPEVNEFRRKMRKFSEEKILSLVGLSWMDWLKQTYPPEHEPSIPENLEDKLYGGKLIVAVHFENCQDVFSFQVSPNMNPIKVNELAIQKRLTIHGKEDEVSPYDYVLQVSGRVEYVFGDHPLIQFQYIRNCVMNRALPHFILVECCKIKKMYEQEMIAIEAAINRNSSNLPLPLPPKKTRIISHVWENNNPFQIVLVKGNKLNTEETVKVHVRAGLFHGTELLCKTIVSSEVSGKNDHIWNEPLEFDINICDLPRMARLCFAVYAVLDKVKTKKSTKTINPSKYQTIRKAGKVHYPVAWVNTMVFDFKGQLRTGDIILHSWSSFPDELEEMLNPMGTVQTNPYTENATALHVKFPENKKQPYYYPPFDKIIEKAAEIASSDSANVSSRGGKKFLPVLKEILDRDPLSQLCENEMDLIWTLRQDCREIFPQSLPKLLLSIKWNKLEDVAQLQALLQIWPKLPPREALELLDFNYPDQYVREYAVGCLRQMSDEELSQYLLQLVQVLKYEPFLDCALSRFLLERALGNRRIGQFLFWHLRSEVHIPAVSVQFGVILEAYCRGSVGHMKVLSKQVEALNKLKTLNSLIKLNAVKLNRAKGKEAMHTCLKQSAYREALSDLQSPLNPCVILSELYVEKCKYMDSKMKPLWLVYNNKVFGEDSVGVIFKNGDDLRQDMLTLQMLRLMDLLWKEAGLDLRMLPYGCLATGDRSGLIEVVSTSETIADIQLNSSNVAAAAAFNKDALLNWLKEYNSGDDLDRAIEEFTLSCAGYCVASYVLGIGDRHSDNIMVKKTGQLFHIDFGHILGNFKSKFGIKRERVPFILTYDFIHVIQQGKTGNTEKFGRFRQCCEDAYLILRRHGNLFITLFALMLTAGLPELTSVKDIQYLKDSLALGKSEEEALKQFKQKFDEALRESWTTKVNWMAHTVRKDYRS
Chain of PI3Kβ (complex of human p110β and human p85α) (P27986 whole entry partner, the tested form may be a part): as the sequence (P27986 whole entry partner, the tested form may be a part) above
Source text: as §1
PI3Kα inhibitory activity of compounds of the present invention was quantified employing the HTRF based PI3K inhibition assay as described below.
as §2
For the assay 50 nL of a 80-fold concentrated solution of the test compound in DMSO was pipetted into a black low volume 384-well microtiter plate (Greiner Bio-One, Frickenhausen, Germany), 3 μl of a solution of PI3Kβ and phosphatidylinositol-4,5-bisphosphate (PIP2, 13.8 μM=> final conc. in 4 μl reaction volume=10 μM) in 1× reaction buffer (exact composition not disclosed by the vendor) were added and the mixture was incubated for 15 min at 22° C. to allow pre-binding of the test compounds to the enzyme before the start of the kinase reaction. The amount of PI3Kβ was chosen to have the enzyme reaction in the linear range and depended on the activity of the individual lot, typical concentrations in assay were in the range of 120 ng/mL. Then the kinase reaction was started by the addition of 1 μL of a solution of adenosine triphosphate (ATP, 40 μM=> final conc. in the 4 μl assay volume is 10 μM) in reaction buffer and the resulting mixture was incubated for a reaction time of 20 min at 22° C.
The reaction was stopped by the addition of 1 μL of an stop solution (containing the biotinylated PIP3 used as a tracer). Then 1 μL detection mix (containing a Europium-labeled anti-GST monoclonal antibody, a GST-tagged PH domain, and Streptavidin-Allophycocyanin) was added and resulting mixture was incubated for 3 h at 22° C. to allow the formation of complexes between the detection reagents and either the PIP3 generated in the kinase reaction, or the biotinylated PIP3 added with the stop solution. Subsequently the amount of energy transfer complex consisting of a Europium-labeled anti-GST monoclonal antibody, a GST-tagged PH domain, biotinylated PIP3 and Streptavidin-Allophycocyanin (APC) was evaluated by measurement of the resonance energy transfer from the Europium-labeled anti-GST monoclonal antibody to the Streptavidin-Allophycocyanin. Therefore, the fluorescence emissions at 620 nm and 665 nm after excitation at 350 nm were measured using a TR-FRET reader, e.g., a Pherastar (BMG Labtechnologies, Offenburg, Germany) or a Viewlux (Perkin-Elmer). The ratio of the emissions at 665 nm and at 622 nm were taken as the measure for the amount of biotinylated PIP3 bound to the GST-tagged PH domain, which is negatively correlated with the amount of PIP3 generated.

| SMILES | inhibition at 0.93 µM [1] | inhibition at 0.93 µM [2] | pIC50 [1] | pIC50 [2] | PI3K beta average IC50/PI3K alpha average IC50 [2] |
| --- | --- | --- | --- | --- | --- |
| COc1c(OCC(O)CN2CCOCC2)ccc2c1N=C(NC(=O)c1cccnc1)N1CCN=C21 (stereo not shown) [Comparative Example 1, N-{8-[2-hydroxy-3-(morpholin-4-yl)propoxy]-7-methoxy-2,3-dihydroimidazo[1,2-c]quinazolin-5-yl}pyridine-3-carboxamide, reference compound] | 97.4% | 92.1% |  |  |  |
| COc1c(OC[C@H](O)CN2CCOCC2)ccc2c1N=C(NC(=O)c1cccnc1)N1CCN=C21 [Example 2, N-(8-{[(2R)-2-hydroxy-3-(morpholin-4-yl)propyl]oxy}-7-methoxy-2,3-dihydroimidazo[1,2-c]quinazolin-5-yl)pyridine-3-carboxamide] | 97.6% | 94.4% |  |  |  |
| COc1c(OC[C@@H](O)CN2CCOCC2)ccc2c1N=C(NC(=O)c1cccnc1)N1CCN=C21 [Example 3, N-(8-{[(2S)-2-hydroxy-3-(morpholin-4-yl)propyl]oxy}-7-methoxy-2,3-dihydroimidazo[1,2-c]quinazolin-5-yl)pyridine-3-carboxamide] | 103% | 92.9% |  |  |  |
| COc1c(OC[C@H](O)CN2C[C@@H](C)O[C@@H](C)C2)ccc2c1N=C(NC(=O)c1cccnc1)N1CCN=C21 [Example 4, N-[8-({(2R)-3-[(2R,6S)-2,6-dimethylmorpholin-4-yl]-2-hydroxypropyl}oxy)-7-methoxy-2,3-dihydroimidazo[1,2-c]quinazolin-5-yl]pyridine-3-carboxamide] | 99.8% | 96.4% | 7.30 to 8.00 | < 7.30 | 4.85 |
| COc1c(OC[C@H](O)CN2CC3CCC(C2)O3)ccc2c1N=C(NC(=O)c1cccnc1)N1CCN=C21 [Example 5, N-(8-{[(2R)-2-hydroxy-3-(8-oxa-3-azabicyclo[3.2.1]oct-3-yl)propyl]oxy}-7-methoxy-2,3-dihydroimidazo[1,2-c]quinazolin-5-yl)pyridine-3-carboxamide] | 101% | 104% | > 8.00 | 7.30 to 8.00 | 3.68 |
| COc1c(OCC(O)CN2CCSCC2)ccc2c1N=C(NC(=O)c1cccnc1)N1CCN=C21 (stereo not shown) [Example 6, N-{8-[2-hydroxy-3-(thiomorpholin-4-yl)propoxy]-7-methoxy-2,3-dihydroimidazo[1,2-c]quinazolin-5-yl}pyridine-3-carboxamide] | 91.2% | 84.1% | > 8.00 | < 7.30 |  |
| COc1c(OC[C@H](O)CN2CCC2)ccc2c1N=C(NC(=O)c1cccnc1)N1CCN=C21 [Example 7, N-(8-{[(2R)-3-(azetidin-1-yl)-2-hydroxypropyl]oxy}-7-methoxy-2,3-dihydroimidazo[1,2-c]quinazolin-5-yl)pyridine-3-carboxamide] | 99.5% | 97.3% | 7.30 to 8.00 | < 7.30 | 2.22 |
| COc1c(OC[C@H](O)CN2CCCC2)ccc2c1N=C(NC(=O)c1cccnc1)N1CCN=C21 [Example 8, N-(8-{[(2R)-2-hydroxy-3-(pyrrolidin-1-yl)propyl]oxy}-7-methoxy-2,3-dihydroimidazo[1,2-c]quinazolin-5-yl)pyridine-3-carboxamide] | 102% | 101% | > 8.00 | 7.30 to 8.00 | 2.62 |
| COc1c(OC[C@H](O)CN2CCCCC2)ccc2c1N=C(NC(=O)c1cccnc1)N1CCN=C21 [Example 9, N-(8-{[(2R)-2-Hydroxy-3-(piperidin-1-yl)propyl]oxy}-7-methoxy-2,3-dihydroimidazo[1,2-c]quinazolin-5-yl)pyridine-3-carboxamide] | 104% | 97.2% | > 8.00 | 7.30 to 8.00 | 2.02 |
| COc1c(OCC(O)CN(C)C)ccc2c1N=C(NC(=O)c1cccnc1)N1CCN=C21 (stereo not shown) [Example 10, N-{8-[3-(dimethylamino)-2-hydroxypropoxy]-7-methoxy-2,3-dihydroimidazo[1,2-c]quinazolin-5-yl}pyridine-3-carboxamide] | 96.3% | 98.1% | > 8.00 | 7.30 to 8.00 | 5.47 |
| COc1c(OC[C@H](O)CN(C)C)ccc2c1N=C(NC(=O)c1cccnc1)N1CCN=C21 [Example 11, N-(8-{[(2R)-3-(dimethylamino)-2-hydroxypropyl]oxy}-7-methoxy-2,3-dihydroimidazo[1,2-c]quinazolin-5-yl)pyridine-3-carboxamide] | 82% | 95.5% | 7.30 to 8.00 | 7.30 to 8.00 | 1.60 |
| COc1c(OC[C@H](O)CN(C(C)C)C(C)C)ccc2c1N=C(NC(=O)c1cccnc1)N1CCN=C21 [Example 12, N-(8-{[(2R)-3-(dipropan-2-ylamino)-2-hydroxypropyl]oxy}-7-methoxy-2,3-dihydroimidazo[1,2-c]quinazolin-5-yl)pyridine-3-carboxamide] | 104% | 115% | > 8.00 | 7.30 to 8.00 | 4.74 |
| COc1c(OC[C@H](O)CN2CCOCC2)ccc2c1N=C(NC(=O)c1cccnc1C)N1CCN=C21 [Example 14, N-(8-{[(2R)-2-Hydroxy-3-(morpholin-4-yl)propyl]oxy}-7-methoxy-2,3-dihydroimidazo[1,2-c]quinazolin-5-yl)-2-methylpyridine-3-carboxamide] | 104% | 102% | > 8.00 | 7.30 to 8.00 | 3.09 |
| COc1c(OC[C@H](O)CN2CCC2)ccc2c1N=C(NC(=O)c1cccnc1C)N1CCN=C21 [Example 16, N-(8-{[(2R)-3-(Azetidin-1-yl)-2-hydroxypropyl]oxy}-7-methoxy-2,3-dihydroimidazo[1,2-c]quinazolin-5-yl)-2-methylpyridine-3-carboxamide] | 109% | 87.7% | 7.30 to 8.00 | 7.30 to 8.00 | 3.94 |
| COc1c(OC[C@H](O)CN2C[C@@H](C)O[C@@H](C)C2)ccc2c1N=C(NC(=O)c1cccnc1C)N1CCN=C21 [Example 17, N-[8-({(2R)-3-[(2R,6S)-2,6-dimethylmorpholin-4-yl]-2-hydroxypropyl}oxy)-7-methoxy-2,3-dihydroimidazo[1,2-c]quinazolin-5-yl]-2-methylpyridine-3-carboxamide] | 109% | 87.2% | > 8.00 | 7.30 to 8.00 | 5.36 |
| COc1c(OC[C@H](O)CN2CCCC2)ccc2c1N=C(NC(=O)c1cccnc1C)N1CCN=C21 [Example 18, N-(8-{[(2R)-2-hydroxy-3-(pyrrolidin-1-yl)propyl]oxy}-7-methoxy-2,3-dihydroimidazo[1,2-c]quinazolin-5-yl)-2-methylpyridine-3-carboxamide] | 96.9% | 103% | > 8.00 | 7.30 to 8.00 | 3.90 |
